Test results taken from patent US12653807B2, “Modified release formulation for (-)-(3AR,4S,7AR)-4-hydroxy-4-m-tolylethynyl-octahydro-indole-1-carboxylic acid methyl ester” (NOVARTIS AG, priority 2013, dated 2026).
In brackets after ≈: the same amount, converted by molar mass. Where two headings read alike, the source gives them in different places.

Key:
[1] = solubility of AFQ056 at 37° C. in different aqueous media (FIG. 2); type: physicochemical; settings: pure aqueous solution with raising ethanol levels
Procedure: FIG. 2 graphically depicts the solubility of AFQ056 at 37° C. in different aqueous media. […] Up to the amount of about 20% of ethanol in the solutions, the LDAO (Lauryldimethylamine N-oxide) in water solution and the water-ethanol solution show a different solubility pattern of AFQ056. In the presence of about 40% ethanol in the solutions, both the LDAO in water solution and the water-ethanol solution show a similar solubility for AFQ056.
The solubility pattern of AFQ056 was examined ([…]). […] In pure aqueous solutions the solubility of AFQ056 steadily increases with raising ethanol concentrations. The solubility pattern of AFQ056 in a LDAO water-ethanol solution is distinct from the solubility pattern of AFQ056 in a pure aqueous solution only up to an amount of 20% ethanol present in the solution. […] Immediate release forms of AFQ056 have therefore the inherent risk of dose dumping and can create severe consequences for the patient if ethanol-containing beverages are consumed in parallel. Particle size distribution is also an important factor influencing the dissolution of a drug substance and is known to influence the drug release from matrix tablets.

[2] = tested on: L-dopa induced dyskinesias; assay: earlier studies of IR AFQ056 in Parkinson's disease patients; type: in vivo, human; settings: IR formulation
From the text: AFQ056 has previously been formulated as a hard gelatin capsule and as a powder for oral suspension, both with immediate release (IR) properties. […] The IR formulation used in these studies required twice-daily dosing.

[3] = solubility in water and in ethanol at room temperature; type: physicochemical; settings: for solubility: room temperature
From the text: Particle size distribution is also an important factor influencing the dissolution of a drug substance and is known to influence the drug release from matrix tablets.

[4] = distribution coefficient Log P of drug substance; type: physicochemical
Procedure: AFQ056 is a chiral molecule with 3 asymmetric carbon atoms and has a melting point of about 115° C. One single polymorph has been identified.

[5] = half life of AFQ056 used to set the wash out period; settings: human, in vivo, oral; 50 mg and 100 mg doses
From the text: The study has a 3-Latin, 5-sequences×5-period open-label design that is suitable for comparing the pharmacokinetics including relative bioavailability of three modified release formulations of AFQ056. The immediate release capsule formulation (size O, IR) is used as a reference to enable comparisons with data obtained in previously completed trials. This study design allows the comparison of pharmacokinetic profile of AFQ056 from three modified release (MR) formulations relative to the IR formulation under fasted conditions, and to assess the food effect on the pharmacokinetics of the three MR forms. Latin-square design is selected as it offers maximum precision of comparison across different treatments with minimum number of study subjects. The cross-over design permits investigation of all five treatment conditions within each subject and is used to account for interindividual variability. […] Sampling for 72 hours post dose is considered sufficient for characterizing the PK profiles of all formulations, including the MR forms.

[6] = Roberts et al., cited from earlier work

With `COC(=O)N1CC[C@@H]2[C@H]1CCC[C@@]2(O)C#Cc1cccc(C)c1` [AFQ056, (−)-(3aR,4S,7aR)-Octahydro-4-hydroxy-4-[(3-methylphenyl)ethynyl]-1H-indole-1-carboxylic acid methyl ester] the “solubility with raising ethanol levels” value [1] was “steadily increasing solubility”, the “effect on L-dopa induced dyskinesias” value ([2]; Parkinson's disease patients) was “reduction in L-dopa induced dyskinesias” and the “effect on underlying Parkinsonian motor symptoms” value ([2]; Parkinson's disease patients) was “without inducing any clinically or statistically significant worsening”. For the same compound, the “most frequent adverse events” value ([2]; patients) was “dizziness, dyskinesia, nausea, fatigue, and hallucinations”, the solubility ([3]; organic solvent or mixture, ethanol, read-out: Solubility in ethanol) was roughly 53000 µg/mL (≈ 169 mM) and the “solubility in organic solvents (in words)” value ([3]; organic solvents such as ethanol) was “soluble”. For the same compound, the “solubility in water (in words)” value ([3]; water) was “hardly soluble”, the solubility ([3]; water, read-out: Solubility in water) was roughly 20 µg/mL (≈ 0.0638 mM) and the logP [4] was 4.7. It also gave a half-life [5] of 7 to 17 h.

In the case of `CC(=O)Oc1ccccc1C(=O)O` [Aspirin], the Solubility in ethanol ([6]; ethanol) is listed as “about 237 mg/ml” and the Solubility in water ([6]; water) is listed as 8400 µg/mL (≈ 46.6 mM).
